Data on two compounds can be found in patent US20220218679A1, “NOVEL COMPOUNDS AND PHARMACEUTICAL COMPOSITIONS THEREOF FOR THE TREATMENT OF INFLAMMATORY DISORDERS” (Galapagos NV, priority 2019, published 2022).

Values after ≈ are worked out from the molar mass of the structure shown. Read-outs that look alike come from different tables or passages of the source.

A short description of this data set: Thermodynamic solubility. In kind it is physicochemical. To be noted: 37 °C, thermodynamic from solid. An excerpt: 4.2. Thermodynamic Solubility
Poor solubility, in particular poor thermodynamic solubility can limit the absorption of compounds from the gastrointestinal tract which in turn may reduce oral bioavailability.
Thermodynamic solubility investigates the solubility of a compound as a saturated solution in equilibrium, by opposition to kinetic solubility, which measures the solubility of a metastable solution where supersaturation may occur and provide over estimation of the actual solubility of the compound. (Klein, 2010)
4.2.2. Thermodynamic Solubility—Protocol 2
In a 8 mL glass vial, 1-2 mg of dry matter of compound were added and stirred with the suitable buffers (Fed State Simulated Intestine Fluid, FeSSIF, or Fasted State Simulated Intestine Fluid, FaSSIF, or Fasted State Simulated Gastric Fluid, FaSSGF, or phosphate buffer pH 7.4) for 24 h at r.t. (for the buffer pH 7.4) or 37° C. (for the GI fluids). The concentration of the mixture was 1 mg/mL.
A volume of 1000 μL were sampled, centrifuged for 10 min at 10 000 rpm and 500 μL of the supernatant were filtered on captiva plate. The samples were diluted in duplicates in DMSO (F100 and F10). Then, a final dilution (F100) in 80/20 H2O/MeCN containing the internal standard (warfarin) was used for LCMS-MS analysis.
A standard curve was made starting from a 40,000 ng/mL stock in DMSO, freshly prepared from dry matter. Then, successive concentrations at 15,000, 11,000, 6,000, 2,500, 1,000, 375, 150 and 75 ng/mL in DMSO were prepared.
Three quality control samples were made: one of 10,000, 1,500 and 200 ng/mL in DMSO, also starting from the DMSO working stock solution at 40,000 ng/mL.
The standard curve and quality controls were diluted a F100 in 80/20 H2O/MeCN (with internal standard) and analyzed on LC/MS-MS (API4000 or API5500).
The samples were analyzed on LC-MS with a flow rate of 0.6 mL/min. The mobile phase A was 0.1% formic acid in water and the mobile phase B was 0.1% formic acid in 90% MeCN and 10% of H2O. The sample was run under positive or negative ion spray on Pursuit C18—5 μm (2.0×20 mm) column, from Agilent.
The ratio analyte/internal standard peaks areas of the standard curve were plotted in a graph and a linear or polynomial of the second order equation was used to calculate the unknown concentrations of the test compound.
Solubility values were reported in μg/mL.

[1] abbreviates: Fasted State Simulated Intestine Fluid (FaSSIF), fassif, Fasted State Simulated Intestine Fluid, read-out: Tsol FaSSIF.
Where [2] appears, read: Fed State Simulated Intestine Fluid (FeSSIF), fessif, Fed State Simulated Intestine Fluid, read-out: Tsol FeSSIF.

Turning to `CNC(=O)c1cn2nc(CCC(C)(C)O)cc2cc1NC(=O)c1cccc(C(F)(F)F)n1` [Compound 5, 2-(3-hydroxy-3-methylbutyl)-N-methyl-5-[[6-(trifluoromethyl)pyridine-2-carbonyl]amino]pyrazolo[1,5-a]pyridine-6-carboxamide], the solubility thermodynamic at 24 h is 1.96 µg/mL (≈ 4.36 µM) (Fasted State Simulated Gastric Fluid (FaSSGF), fassgf or other biorelevant, Fasted State Simulated Gastric Fluid, read-out: Tsol FaSSGF); 2.26 µg/mL (≈ 5.03 µM) under setting [1]; 14.2 µg/mL (≈ 31.6 µM) under setting [2].
With `COc1cn2nc(CCC(C)(C)O)cc2cc1NC(=O)c1cccn(C2CC2)c1=O` [Compound 1, 1-cyclopropyl-N-[2-(3-hydroxy-3-methylbutyl)-6-methoxypyrazolo[1,5-a]pyridin-5-yl]-2-oxopyridine-3-carboxamide], the solubility thermodynamic at 24 h is 11.3 µg/mL (≈ 27.5 µM) under setting [1] and 83.4 µg/mL (≈ 203 µM) under setting [2].
